Test results taken from ChEMBL document CHEMBL4393655, “Evaluation of synthetic substituted 1,2-dioxanes as novel agents against human leishmaniasis” (Eur J Med Chem, 2019).

How the values were obtained:
Leishmania infantum [1] = experiment: Antileishmanial activity against promastigote stage of Leishmania infantum MHOM/PT/88/IMT151 as parasite growth inhibition after 48 hrs by MTT assay; type: functional, organism-based; settings: MHOM/PT/88/IMT151, 48 h
Leishmania infantum [2] = experiment: Antileishmanial activity against amastigote stage of Leishmania infantum MHOM/PT/88/IMT151 infected in human THP-1 cells assessed as parasite growth inhibition after 48 hrs by microscopic analysis; type: functional, organism-based; settings: MHOM/PT/88/IMT151, THP-1, 48 h
Leishmania donovani [3] = experiment: Antileishmanial activity against late log/stationary phase of promastigote stage of Leishmania donovani MHOM/NP/02/BPK282/0c14 assessed as parasite growth inhibition after 72 hrs by plate reader based Alamar blue assay; type: functional, organism-based
Leishmania donovani [4] = experiment: Antileishmanial activity against promastigote stage of Leishmania donovani MHOM/ET/67/HU3 assessed as parasite growth inhibition after 3 days by MTT assay; type: functional, organism-based; settings: MHOM/ET/67/HU3, 72 h
[5] = Solubility of the compound; type: physicochemical
[6] = (§1) Cytotoxicity against African green monkey Vero cells after 72 hrs by plate reader based Alamar blue assay; type: cell-based; settings: chlorocebus sabaeus, Vero cells
[7] = Selectivity index, ratio of CC50 for African green monkey Vero cells to IC50 for Leishmania donovani MHOM/NP/02/BPK282/0c14; type: toxicity; settings: for selectivity ratio: Vero cells, read-out: Ratio CC50/IC50
Leishmania infantum [8] = experiment: Antileishmanial activity against late log/stationary phase of promastigote stage of Leishmania infantum MHOM/TN/80/IPT1 assessed as parasite growth inhibition after 72 hrs by plate reader based Alamar blue assay; type: functional, organism-based; settings: MHOM/TN/80/IPT1, 72 h
Leishmania major = experiment: Antileishmanial activity against late log/stationary phase of promastigote stage of Leishmania major MHOM/SU/73/5-ASKH assessed as parasite growth inhibition after 72 hrs by plate reader based Alamar blue assay; type: functional, organism-based
Leishmania tropica = experiment: Antileishmanial activity against late log/stationary phase of promastigote stage of Leishmania tropica MHOM/SU/74/K27 assessed as parasite growth inhibition after 72 hrs by plate reader based Alamar blue assay; type: functional, organism-based; settings: MHOM/SU/74/K27, 72 h
Leishmania donovani [9] = experiment: Antileishmanial activity against amastigote stage of Leishmania donovani MHOM/NP/02/BPK282/0c14 infected in human THP1 cells assessed as parasite growth inhibition after 72 hrs by Giemsa staining-based light microscopic analysis; type: functional, organism-based; settings: MHOM/NP/02/BPK282/0c14, THP-1, 72 h
Vero = experiment: as §1; type: cell-based; settings: chlorocebus sabaeus, vero, 72 h
Leishmania donovani [10] = experiment: Antileishmanial activity against promastigote stage of Leishmania donovani MHOM/IN/83/AG83 assessed as inhibition of parasite viability after 48 hrs by MTS assay; type: functional, organism-based; settings: MHOM/IN/83/AG83, 48 h
Leishmania donovani [11] = experiment: Antileishmanial activity against promastigote stage of Leishmania donovani assessed as parasite growth inhibition after 72 hrs by resazurin dye based assay; type: functional, organism-based
Leishmania donovani [12] = experiment: Antileishmanial activity against promastigote stage of Leishmania donovani NLB-065 assessed as parasite growth inhibition after 72 hrs by microscopic analysis; type: functional, organism-based; settings: NLB-065, 72 h
[13] = Leishmania donovani, MHOM/NP/02/BPK282/0c14, 72 h

Row | SMILES | IC50 (Leishmania donovani [3]; [13]) | CC50 at 72 h [6] | selectivity ratio [7] | also measured
1 | O=C1CCC2(CC1)OOC1(O2)C2CC3CC(C2)CC1C3 (centres undefined) |  |  |  | IC50 (Leishmania infantum [1]): 9.35 µM; IC50 (Leishmania infantum [2]): 79.8 µM
2 | COC(=O)C1CC(c2ccccc2)(c2ccccc2)OOC1(C)OC (centres undefined) | > 40 µM |  |  | 
3 | C=CCO[C@@]1(C(F)(F)F)O[C@@H]2O[C@@]3(C)C[C@H]4[C@H](C)CC[C@@H](C1=C)[C@@]24OO3 |  |  |  | IC50 (Leishmania donovani [4]): 5.5 to 12.4 µM
4 | C=CCO[C@@]1(C(F)(F)F)O[C@@H]2O[C@@]3(C)C[C@H]4[C@H](C)CC[C@@H]([C@H]1C)[C@@]24OO3 |  |  |  | IC50 (Leishmania donovani [4]): 1.6 to 6.25 µM
5 | CCCCC1(O)OOC(c2ccccc2)(c2ccccc2)CC1C(=O)OC (centres undefined) |  |  |  | solubility [5]: Insoluble
6 | C[C@@H]1CC[C@H]2[C@@H](C)[C@](OO)(C(F)(F)F)O[C@@H]3O[C@@]4(C)C[C@@H]1[C@]32OO4 |  |  |  | IC50 (Leishmania donovani [4]): 2.5 to 12.5 µM
7 | COC1(C)OOC(c2ccccc2)(c2ccccc2)CC1CO (centres undefined) | > 40 µM |  |  | 
8 | COc1ccc(N[C@@]2(C(F)(F)F)O[C@@H]3O[C@@]4(C)C[C@H]5[C@H](C)CC[C@@H]([C@H]2C)[C@@]35OO4)cc1 |  |  |  | IC50 (Leishmania donovani [4]): 0.38 to 1.5 µM
9 | COC(=O)C1CC(c2ccccc2)(c2ccccc2)OOC1(C)O (centres undefined) | > 40 µM |  |  | 
10 | NCC1CC[C@]2(CC1)OO[C@]1(O2)C2CC3CC(C2)CC1C3 (some centres undefined) |  |  |  | IC50 (Leishmania infantum [1]): 3.51 µM; IC50 (Leishmania infantum [2]): 108 µM
11 | CCCCC1(CCCC)C[C@@H](COCc2cn(CC(O)(Cn3cncn3)c3ccc(F)cc3F)nn2)[C@@](C)(OC)OO1 (mixture of isomers) | 16 µM | 195 µM | 12.2 | IC50 (Leishmania infantum [8]): 12 µM; IC50 (Leishmania major): 38.4 µM; IC50 (Leishmania tropica): 38 µM; IC50 (Leishmania donovani [9]): 13 µM
12 | CO[C@@]1(C)OOC2(CC[C@H]3C[C@@H]2C3(C)C)C[C@H]1CNCCCn1ccnc1 (mixture of isomers) | 16.3 µM | 274 µM | 16.8 | IC50 (Leishmania infantum [8]): 6 µM; IC50 (Leishmania major): 15.5 µM; IC50 (Leishmania tropica): 35 µM; IC50 (Leishmania donovani [9]): 23.5 µM
13 | CO[C@]1(C)OOC2(CC[C@H]3C[C@@H]2C3(C)C)C[C@H]1CNCCCn1ccnc1 (mixture of isomers; form 1) |  | 300 µM | 18.3 | IC50 (Leishmania donovani [3]): 16.4 µM
14 | CO[C@]1(C)OOC2(CC[C@H]3C[C@@H]2C3(C)C)C[C@H]1CNCCCn1ccnc1 (mixture of isomers; form 2) |  |  |  | IC50 (Leishmania donovani [3]): 8 µM; CC50 (Vero): 276 µM; Ratio CC50/IC50 ([7]; vero): 34.6; IC50 (Leishmania infantum [8]): 5 µM; IC50 (Leishmania major): 25 µM; IC50 (Leishmania tropica): 24 µM; IC50 (Leishmania donovani [9]): 9.7 µM
15 | CO[C@@]1(C)OOC(C)(C)C[C@H]1COCc1cn(CCC[P+](c2ccccc2)(c2ccccc2)c2ccccc2)nn1 (racemic) | > 40 µM |  |  | 
16 | CCCCC1(CCCC)C[C@@H](C(=O)OC)[C@@](C)(O)OO1 (racemic) | > 40 µM |  |  | 
17 | CCCCC1(CCCC)C[C@@H](CO)[C@](C)(OC)OO1 (racemic) | > 40 µM |  |  | 
18 | CCCC[C@]1(OC)OOC(C)(C)C[C@H]1CNCCCn1ccnc1 (racemic) | > 40 µM |  |  | 
19 | CCCCC1(CCCC)C[C@@H](CNCCCn2cncn2)[C@@](C)(OC)OO1 (racemic) | > 40 µM |  |  | 
20 | CO[C@@]1(C)OOC(C)(C)C[C@H]1CNCCCn1ccnc1 (racemic) | > 40 µM |  |  | 
21 | CO[C@@]1(C)OOC(c2ccccc2)(c2ccccc2)C[C@H]1CNCCCn1ccnc1 (racemic) | 7.5 µM | 50 µM | 6.7 | 

Row | SMILES | IC50 (Leishmania donovani [3]; [13]) | CC50 at 72 h [6] | selectivity ratio [7] | also measured
22 | CCCCC1(CCCC)C[C@@H](CO)[C@@](C)(OC)OO1 (racemic) | > 40 µM |  |  | 
23 | CCCCC1(CCCC)C[C@@H](C(=O)OC)[C@](C)(OC)OO1 (racemic) | > 40 µM |  |  | 
24 | CCCCC1(CCCC)C[C@@H](CNCCCn2ccnc2)[C@@](CCCC)(OC)OO1 (racemic) | 6.2 µM | 32.5 µM | 5.2 | 
25 | CO[C@@]1(C)OOC(c2ccccc2)(c2ccccc2)C[C@H]1COCc1cn(CCC[P+](c2ccccc2)(c2ccccc2)c2ccccc2)nn1 (racemic) | 13.8 µM | 280 µM | 24.3 | IC50 (Leishmania infantum [8]): 10 µM; IC50 (Leishmania major): 2.6 µM; IC50 (Leishmania tropica): 6 µM; IC50 (Leishmania donovani [9]): 16.5 µM
26 | CCCCC1(CCCC)C[C@@H](CNCCCNc2ccnc3cc(Cl)ccc23)[C@@](C)(OC)OO1 (racemic) | 1.6 µM | 4 µM | 2.5 | 
27 | CCCC[C@]1(OC)OOC(c2ccccc2)(c2ccccc2)C[C@H]1CNCCCn1ccnc1 (racemic) | 4.2 µM | 9.5 µM | 2.3 | 
28 | CO[C@@]1(C)OOC(c2ccc(F)cc2)(c2ccc(F)cc2)C[C@H]1CNCCCn1ccnc1 (racemic) | 12 µM | 93.6 µM | 7.8 | 
29 | CCCCC1(CCCC)C[C@@H](C(=O)OC)[C@@](C)(OC)OO1 (racemic) | > 40 µM |  |  | 
30 | CCCCC1(CCCC)C[C@@H](CNCCCn2ccnc2)[C@@](C)(OC)OO1 (racemic) | 7.5 µM | 74.5 µM | 13.5 | IC50 (Leishmania infantum [8]): 3 µM; IC50 (Leishmania major): 11.8 µM; IC50 (Leishmania tropica): 8.9 µM; IC50 (Leishmania donovani [9]): 12.2 µM
31 | CCCCC1(CCCC)C[C@@H](CNCCCn2ccnc2)[C@](C)(OC)OO1 (racemic) | 5.2 µM | 140 µM | 35 | IC50 (Leishmania infantum [8]): 2.5 µM; IC50 (Leishmania major): 3.2 µM; IC50 (Leishmania tropica): 3 µM; IC50 (Leishmania donovani [9]): 10.1 µM
32 | CCCCC1(CCCC)C[C@@H](COCc2cn(CCC[P+](c3ccccc3)(c3ccccc3)c3ccccc3)nn2)[C@](C)(OC)OO1 (racemic) | 40 µM | 200 µM | 5 | 
33 | CCCCC1(CCCC)C[C@@H](COCc2cn(CCC[P+](c3ccccc3)(c3ccccc3)c3ccccc3)nn2)[C@@](C)(OC)OO1 (racemic) | 15.5 µM | 102 µM | 6.6 | 
34 | C[C@@H]1[C@H](O)[C@@H](C)/C=C/C=C/C=C/C=C/C=C/C=C/C=C/[C@H](O[C@@H]2O[C@H](C)[C@@H](O)[C@H](N)[C@@H]2O)C[C@@H]2O[C@](O)(C[C@@H](O)C[C@@H](O)[C@H](O)CC[C@@H](O)C[C@@H](O)CC(=O)O[C@H]1C)C[C@H](O)[C@H]2C(=O)O [AMPHOTERICIN B] | 0.3 µM |  | 667 | IC50 (Leishmania donovani [4]): 0.03 to 2.8 µM
35 | C[C@@H]1CC[C@H]2[C@@H](C)C(=O)O[C@@H]3O[C@@]4(C)CC[C@@H]1[C@]32OO4 [ARTEMISININ] | > 40 µM |  |  | IC50 (Leishmania donovani [10]): 100 to 160 µM
36 | C[C@H]1[C@@H](O)O[C@@H]2O[C@@]3(C)CC[C@H]4[C@H](C)CC[C@@H]1[C@@]24OO3 [ARTENIMOL] |  |  |  | IC50 (Leishmania donovani [4]): 4.1 to 20.2 µM
37 | OC(Cn1cncn1)(Cn1cncn1)c1ccc(F)cc1F [FLUCONAZOLE] | > 40 µM |  |  | 
38 | CCCCCCCCCCCCCCCCOP(=O)([O-])OCC[N+](C)(C)C [MILTEFOSINE] |  |  |  | IC50 (Leishmania donovani [4]): 1.9 to 68.1 µM
39 | NC[C@@H]1O[C@H](O[C@H]2[C@@H](O)[C@H](O[C@@H]3[C@@H](O)[C@H](N)C[C@H](N)[C@H]3O[C@H]3O[C@H](CO)[C@@H](O)[C@H](O)[C@H]3N)O[C@@H]2CO)[C@H](N)[C@@H](O)[C@@H]1O [PAROMOMYCIN] |  |  |  | IC50 (Leishmania donovani [11]): 19.7 to 28.1 µM
40 | CCN(CC)CCCCCCNc1cc(OC)cc2c(C)ccnc12 [SITAMAQUINE] |  |  |  | IC50 (Leishmania donovani [4]): 36.1 to 179 µM
41 | C[C@H]1[C@H](OC(=O)CCC(=O)O)O[C@@H]2O[C@@]3(C)CC[C@H]4[C@H](C)CC[C@@H]1[C@@]24OO3 [SODIUM ARESUNATE] | > 40 µM |  |  | IC50 (Leishmania donovani [12]): 12.1 µM
